{"source": "patent US6818655B2", "about": "“Urotensin-II receptor antagonists” (SmithKline Beecham Corporation, priority 2001, dated 2004)", "target": "T1, human and rat GPR-14 (UniProt Q9UKP6)", "T1 sequence (Q9UKP6 1-389)": "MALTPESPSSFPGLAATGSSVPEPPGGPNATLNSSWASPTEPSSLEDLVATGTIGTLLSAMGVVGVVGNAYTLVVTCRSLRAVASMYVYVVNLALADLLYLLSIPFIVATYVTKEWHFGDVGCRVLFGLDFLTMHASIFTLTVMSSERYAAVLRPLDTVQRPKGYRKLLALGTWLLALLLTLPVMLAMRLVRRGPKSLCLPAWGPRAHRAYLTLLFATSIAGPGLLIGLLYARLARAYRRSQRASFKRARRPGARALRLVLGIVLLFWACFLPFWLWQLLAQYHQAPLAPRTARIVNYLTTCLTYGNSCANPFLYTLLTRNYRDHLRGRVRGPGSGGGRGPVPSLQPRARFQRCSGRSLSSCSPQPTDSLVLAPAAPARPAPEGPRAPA", "assay": "Radioligand binding, [125I] h-U-II, HEK-293 cell membranes", "conditions": "radioligand binding assay; HEK-293 cell membranes with stable cloned GPR-14; 200 pM [125I] h-U-II", "description": "HEK-293 cell membranes containing stable cloned human and rat GPR-14 (20 ug/assay) were incubated with 200 pM [125I] h-U-II (200 Ci/mmol^−1 in the presence of increasing concentrations of test compounds in DMSO (0.1 nM to 10 uM), in a final incubation volume of 200 ul (20 mM Tris-HCl, 5 mM MgCl2). Incubation was done for 30 minutes at room temperature followed by filtration GF/B filters with Brandel cell harvester. ^125I labeled U-II binding was quantitated by gamma counting. Nonspecific binding was defined by ^125I U-II binding in the presence of 100 nM of unlabeled human U-II. Analysis of the data was performed by nonlinear least square fitting."}
{"smiles": "COc1cc(NCCCNC(=O)C(c2ccccc2)c2ccccc2)nc2ccccc12", "note": "[Example 29, N-[3-(4-Methoxy-quinolin-2-ylamino)-propyl]-2,2-diphenyl-acetamide]", "values": [{"measurement": "Ki", "result": 90, "unit": "nM"}]}
